Measurements reported in patent US9757375B2, “Compounds that inhibit human DNA ligases and methods of treating cancer” (University of Maryland, Baltimore, priority 2007, dated 2017).
Like-named read-outs stand apart in the source and are kept apart here. Marks after values point to notes of the source that are not given here.

Experiments:
hLigI = molecular target: T1, hLigI (Homo sapiens, UniProt P18858); experiment: High-throughput fluorescence-based DNA joining (ligation) assay; type: biochemical; settings: for inhibition at 100 µM: read-out: % of inhibition @ 100 μM (Helen's data) hLigI
T1 construct: made in house
Description: Candidate ligase inhibitors identified by CADD were assayed for their ability to inhibit hLigI and T4 DNA ligase using a high-throughput, fluorescence energy transfer-based DNA joining assay (22). Duplicate reactions (30 μL) containing 10 pmol of nicked DNA substrate and either 0.25 pmol of hLigI or 10 units of T4 DNA ligase were incubated in the presence or absence of 100 μmol/L of the putative inhibitor. DNA binding by the candidate DNA ligase inhibitors was measured by displacement of ethidium bromide from DNA as previously described (30).
(§1) The method for screening compounds comprises testing the compound for the ability to inhibit human DNA ligases I, III and IV with a high throughput fluorescence-based ligation assay. In this assay, phosphodiester bond formation covalently links together two oligonucleotides, one of which is a fluorescent donor AF488 that is 11 nucleotides from the 3′ terminus and the other contains a fluorescence acceptor and quencher, BHQ1 that is 15 nucleotides from the 5′ terminus. When these oligonucleotides are present in separate duplexes and in the same nicked or intact duplex, there is no significant quenching of fluorescence because the donor and acceptor are too far apart. As single-strands neither the AF488 oligonucleotide nor the BHQ1 oligonucleotides have significant secondary structure. However, when these oligonucleotides are ligated together, the resultant single strand forms a stable hairpin structure, in which the AF488 and BHQ1 groups are very close together, resulting in efficient intra-molecular quenching of fluorescence. Thus, in the DNA joining assay, the DNA substrate is denatured after incubation with the DNA ligase and then renatured in the presence of a 20-fold excess of an oligonucleotide that is identical to the ligated strand containing the fluorescent door and acceptor except that it lacks these modifications. Using this assay, DNA joining, which results in reduced fluorescence at 518 nm, can be measured rapidly, quantitatively and with high-throughput using a fluorescence plate reader.
(§2) Applicants developed a novel high throughput fluorescence-based ligation assay by modifying the sequence of the oligos to optimize hairpin formation by the single strand ligated product of the high throughput fluorescence-based ligation assay of Chen et al (22). […] Compound stock solutions, which were 10 mM in 0.5% DMSO, were diluted in 0.5% DMSO. Human DNA ligases I and III were assayed with a nicked DNA substrate whereas as the substrate for human DNA ligase IV was two oligonucleotide duplexes with short complementary single strand ends.

human DNA ligase III = molecular target: T2, human DNA ligase III (Homo sapiens, UniProt P49916); experiment: as above; type: biochemical; settings: for inhibition at 100 µM: read-out: % of inhibition @ 100 μM (Helen's data) hLigIII
T2 sequence (P49916 1-862 isoform P49916-4): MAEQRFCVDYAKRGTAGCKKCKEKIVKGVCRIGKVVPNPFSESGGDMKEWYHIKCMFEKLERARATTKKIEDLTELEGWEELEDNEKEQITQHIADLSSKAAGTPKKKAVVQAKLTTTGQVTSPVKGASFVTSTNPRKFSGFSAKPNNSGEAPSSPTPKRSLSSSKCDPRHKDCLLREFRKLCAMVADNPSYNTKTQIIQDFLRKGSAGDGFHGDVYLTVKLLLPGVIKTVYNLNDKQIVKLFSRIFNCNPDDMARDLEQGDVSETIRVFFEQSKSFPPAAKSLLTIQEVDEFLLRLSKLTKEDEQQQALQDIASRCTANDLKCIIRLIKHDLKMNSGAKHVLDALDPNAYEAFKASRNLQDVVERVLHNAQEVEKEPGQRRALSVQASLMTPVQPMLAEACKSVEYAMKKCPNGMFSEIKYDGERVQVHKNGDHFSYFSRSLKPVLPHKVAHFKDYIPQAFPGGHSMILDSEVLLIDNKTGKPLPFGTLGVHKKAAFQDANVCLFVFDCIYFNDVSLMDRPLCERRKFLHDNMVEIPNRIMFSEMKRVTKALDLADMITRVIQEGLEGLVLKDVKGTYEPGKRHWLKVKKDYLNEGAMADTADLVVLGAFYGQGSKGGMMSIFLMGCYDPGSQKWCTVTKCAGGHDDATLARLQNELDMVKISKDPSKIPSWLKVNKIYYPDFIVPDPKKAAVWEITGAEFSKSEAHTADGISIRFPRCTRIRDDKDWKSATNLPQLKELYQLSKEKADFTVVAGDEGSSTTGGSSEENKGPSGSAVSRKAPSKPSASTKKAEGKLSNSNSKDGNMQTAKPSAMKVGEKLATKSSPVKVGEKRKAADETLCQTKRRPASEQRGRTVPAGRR
Excerpt: as §1, §2

human DNA ligase IV = human DNA ligase IV (Homo sapiens, UniProt P49917); experiment: as above; type: biochemical; settings: 100 μM; for inhibition at 100 µM: read-out: % of inhibition @ 100 μM (Helen's data) hLigIV
Excerpt: as §1, §2

MCF10A cells [1] = experiment: Screen for potentiation of DNA damaging agents (MMS, camptothecin, cis-platinum, 3 aminobenzamide, ionizing radiation); type: cell-based, human; settings: compound alone vs combination with MMS (100 μM); 1 = no sensitization
Excerpt: The 192 human DNA ligase inhibitors were screened in parallel for effects on proliferation and the ability to potentiate the effects of several DNA damaging agents using two cell human lines, a colon cancer line HCT116 and a normal breast epithelial cell line MCF10A using a Biomek FX Laboratory Automation Workstation as described (23). The DNA damaging agents used, methyl methanesulfonate (MMS), camptothecin, cis-platinum, 3 aminobenzamide and ionizing radiation, are representatives of classes of agents used to treat cancer. Briefly, HCT116 and MCF10A cells were plated in 96 well plates such that the cultures were about 80% confluent after 5 days incubation. Compounds were added to the cultures at either 15 μM or 50 μM 1 day after plating. After incubation for 3 days, cell lysed in a solution containing 1.2% Igepal CA-630 and SYBR green that stains DNA (1:1000, Molecular Probes, Eugene, Oreg.). Subsequently, fluorescence was measured per well. The studies with DNA damaging agents were performed as follows. […] Cultures were incubated for 3 days and then treated as above.

HCT116 cells = experiment: MTT cell growth assay; type: cell-based, human; settings: Homo sapiens, HCT-116
Description: (§3) The activity of hits from the initial screen was further validated using the MTT assay. Briefly, MCF10A and HCT116 cells were seeded in 96 well plates at 300 and 1200 cells per well, respectively, and allowed to adhere overnight. The following day, serial dilutions of compounds in media were added to the cells in a final volume 200 μl. After incubation for 5 days, MTT reagent (3-(4,5-dimthylthiazol-2-yl)-2,5-diphenyltatrazolium) was added and incubation was continued for 4 h. Formazan crystals generated by reduction of the MTT reagent in mitochondria were solubilized with isopropanol prior to the measurement of absorbance at 560 nm wavelength in a plate reader.
After incubation for 5 days, cell growth was measured by the MTT assay (16).

MCF10A cells [2] = experiment: MTT cell growth assay; type: cell-based, human; settings: for IC50: Homo sapiens, MCF-10A
Description: as §3
To extend the results of the […] cell culture screening assay, a subset of compounds were tested in larger cultures. Different concentrations of Compounds 67 and 151 were added to asynchronous subconfluent populations of HCT116 and MCF10A cells. Asynchronous subconfluent populations of HCT116 and MCF10A cells were pre-treated with different concentrations of compound 64 prior to the addition of 3 aminobenzamide (2 mM) MMS (100 μM) or cis-platinum (1 μM). After incubation for 5 days, cell growth was measured by the MTT assay (16).

MCF10A cells [3] = experiment: Cell proliferation screen (SYBR Green, Biomek FX); type: cell-based, human; settings: 50 μM; percentage of values obtained with DMSO alone
Description: The ability of the compounds identified by CADD to inhibit proliferation of normal mammary epithelial MCF10A cells and colon carcinoma HCT116 cells was determined using a Biomek FX Laboratory Automation Workstation (Beckman Coulter, Inc., Fullerton, Calif.). On day 0, 20 μl of complete medium containing the appropriate number of cells (150-300) was plated per well of a 384-well tissue plate (Fisher Scientific, Hampton, N.H.) and incubated overnight at 37° C. with 5% CO2 and 90% humidity. Next day, day 1, compounds were prepared by serial dilution with complete medium to yield the concentration 100 μM, and 20 μl was added to each well containing 20 μl of medium and cells yielding the final concentration 50 μM in 40 μl volume. Plates were incubated for additional 3 days (days-2-5) until control cells (0.5% DMSO) reached ˜70-80% confluency. On day 6, 40 μl of lysis/detection solution containing 1.2% Igepal CA-630 (Sigma) and a 1:1000 dilution of SYBR Green I nucleic acid stain (Molecular Probes, Eugene, Oreg.) was added to each well. Following an overnight incubation at 37° C., total fluorescence was measured using a Fluorostar Galaxy plate reader with a 485 nm excitation filter and 520 nm emission filter set (BMG Labtech, Inc., Durham, N.C.). Data was exported to a custom program that determined growth inhibition by dividing each individual fluorescence value by the average of fluorescence values obtained with cells treated with DMSO alone.
The 192 human DNA ligase inhibitors were screened in parallel for effects on proliferation and the ability to potentiate the effects of several DNA damaging agents using two cell human lines, a colon cancer line HCT116 and a normal breast epithelial cell line MCF10A using a Biomek FX Laboratory Automation Workstation as described (23). The DNA damaging agents used, methyl methanesulfonate (MMS), camptothecin, cis-platinum, 3 aminobenzamide and ionizing radiation, are representatives of classes of agents used to treat cancer. Briefly, HCT116 and MCF10A cells were plated in 96 well plates such that the cultures were about 80% confluent after 5 days incubation. Compounds were added to the cultures at either 15 μM or 50 μM 1 day after plating. After incubation for 3 days, cell lysed in a solution containing 1.2% Igepal CA-630 and SYBR green that stains DNA (1:1000, Molecular Probes, Eugene, Oreg.). Subsequently, fluorescence was measured per well. The studies with DNA damaging agents were performed as follows. […] For ionizing radiation, cells were pre-incubated with the compounds at 50 μM for 1 hour prior to exposure to 2 gray of ionizing radiation. Cultures were incubated for 3 days and then treated as above.

[4] = sections 'high concentrations (~50 μM)' and 'active in vitro that decreased cell growth', same figures given in μM elsewhere in Table 6, read-out: IC50 MCF10A (head without unit)

Chain of human DNA ligase IV (P49917 whole entry): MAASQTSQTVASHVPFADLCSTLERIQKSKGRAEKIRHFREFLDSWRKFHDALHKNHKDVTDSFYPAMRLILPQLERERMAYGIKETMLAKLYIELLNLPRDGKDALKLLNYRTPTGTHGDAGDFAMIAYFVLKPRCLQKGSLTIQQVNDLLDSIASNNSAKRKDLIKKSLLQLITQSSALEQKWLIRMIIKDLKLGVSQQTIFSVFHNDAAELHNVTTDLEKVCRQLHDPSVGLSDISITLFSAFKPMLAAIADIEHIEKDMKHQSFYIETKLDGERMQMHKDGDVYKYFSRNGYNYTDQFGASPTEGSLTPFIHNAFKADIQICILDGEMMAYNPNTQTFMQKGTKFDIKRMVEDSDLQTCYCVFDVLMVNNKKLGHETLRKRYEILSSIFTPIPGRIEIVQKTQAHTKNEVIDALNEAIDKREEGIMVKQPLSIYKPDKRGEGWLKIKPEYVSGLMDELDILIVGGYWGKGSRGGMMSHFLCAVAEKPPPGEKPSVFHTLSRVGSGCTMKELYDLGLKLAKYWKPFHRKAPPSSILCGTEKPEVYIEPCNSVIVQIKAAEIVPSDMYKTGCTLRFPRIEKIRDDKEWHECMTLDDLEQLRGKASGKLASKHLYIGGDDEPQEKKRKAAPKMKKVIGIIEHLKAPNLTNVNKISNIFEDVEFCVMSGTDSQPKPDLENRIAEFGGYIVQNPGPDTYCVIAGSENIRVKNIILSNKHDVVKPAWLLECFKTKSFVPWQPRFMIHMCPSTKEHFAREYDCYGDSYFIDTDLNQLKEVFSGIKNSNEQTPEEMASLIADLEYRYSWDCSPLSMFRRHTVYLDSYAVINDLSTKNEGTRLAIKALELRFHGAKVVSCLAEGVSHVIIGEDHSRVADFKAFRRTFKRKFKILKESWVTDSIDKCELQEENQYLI
Chain of human DNA ligase IV (Q13426 whole entry partner): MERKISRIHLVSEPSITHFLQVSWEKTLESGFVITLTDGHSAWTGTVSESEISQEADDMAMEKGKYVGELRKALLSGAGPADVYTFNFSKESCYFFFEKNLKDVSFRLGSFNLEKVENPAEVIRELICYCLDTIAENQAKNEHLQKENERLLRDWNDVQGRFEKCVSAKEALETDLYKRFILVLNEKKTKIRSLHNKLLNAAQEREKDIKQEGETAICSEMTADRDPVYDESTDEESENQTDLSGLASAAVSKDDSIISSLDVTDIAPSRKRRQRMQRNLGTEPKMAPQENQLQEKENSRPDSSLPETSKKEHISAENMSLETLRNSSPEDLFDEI
T1 sequence (P18858 whole entry): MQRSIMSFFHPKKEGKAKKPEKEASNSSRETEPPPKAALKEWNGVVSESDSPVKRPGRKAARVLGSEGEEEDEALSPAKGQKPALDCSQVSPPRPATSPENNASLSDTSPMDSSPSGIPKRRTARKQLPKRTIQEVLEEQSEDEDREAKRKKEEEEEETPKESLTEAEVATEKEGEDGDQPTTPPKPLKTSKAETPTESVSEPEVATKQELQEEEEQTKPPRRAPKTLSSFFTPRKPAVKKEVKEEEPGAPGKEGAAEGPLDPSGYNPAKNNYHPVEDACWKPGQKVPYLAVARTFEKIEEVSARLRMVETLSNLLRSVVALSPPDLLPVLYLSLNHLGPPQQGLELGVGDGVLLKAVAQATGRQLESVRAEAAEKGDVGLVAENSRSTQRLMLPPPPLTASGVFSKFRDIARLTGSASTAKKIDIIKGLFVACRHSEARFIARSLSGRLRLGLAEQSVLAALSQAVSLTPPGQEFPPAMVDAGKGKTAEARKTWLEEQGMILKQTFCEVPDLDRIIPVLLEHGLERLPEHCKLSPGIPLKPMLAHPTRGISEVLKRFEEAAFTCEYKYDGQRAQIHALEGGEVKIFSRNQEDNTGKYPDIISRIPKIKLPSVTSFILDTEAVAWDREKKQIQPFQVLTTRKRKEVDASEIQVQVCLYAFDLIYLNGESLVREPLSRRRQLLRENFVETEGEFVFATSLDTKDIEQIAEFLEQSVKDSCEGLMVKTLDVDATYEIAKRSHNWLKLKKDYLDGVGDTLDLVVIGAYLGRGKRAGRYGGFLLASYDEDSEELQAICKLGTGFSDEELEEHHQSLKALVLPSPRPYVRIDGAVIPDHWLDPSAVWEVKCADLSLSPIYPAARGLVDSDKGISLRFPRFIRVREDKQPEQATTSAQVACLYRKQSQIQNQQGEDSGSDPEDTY

**Q.** With C=CCN1C(=O)/C(=C\c2ccccc2C(=O)O)SC1=S [Compound 159] as the molecule, how does the inhibition at 100 µM (hLigI; 100 μM) read?
**A.** < 20%

**Q.** And the inhibition at 100 µM (human DNA ligase III)?
**A.** < 20%

**Q.** And the inhibition at 100 µM (human DNA ligase IV)?
**A.** < 20%

**Q.** What about the “MMS: Ratios of IC50 MCF10A” value (MCF10A cells [1]) of the same molecule?
**A.** Ni

**Q.** What about the IC50 (HCT116 cells; cell growth, compound alone, read-out: IC50 (μM) HCT116) of the same molecule?
**A.** 50 µM

**Q.** And the IC50 (HCT116 cells; sections 'high concentrations (~50 μM)' and 'active in vitro that decreased cell growth', same figures given in μM elsewhere in Table 6, read-out: IC50 HCT116 (head without unit))?
**A.** ≥ 50 µM

**Q.** And the IC50 (MCF10A cells [2]; [4])?
**A.** > 50 µM

**Q.** Which results are given for CC(C(=O)Nc1cccc(C(=O)O)c1)N(C)S(=O)(=O)c1ccccc1 (stereo not drawn) [Compound 199]?
**A.** % of inhibition @ 100 μM (Helen's data) hLigI (hLigI; 100 μM): NI (NI- no inhibition); % of inhibition @ 100 μM (Helen's data) hLigIII (human DNA ligase III; 100 μM): NI (NI- no inhibition); % of inhibition @ 100 μM (Helen's data) hLigIV (human DNA ligase IV): NI (NI- no inhibition); inhibition of cell proliferation of MCF10A at 50 μM (MTT) (MCF10A cells [2]; 50 μM, numbers printed under MCF10A in r92-r106: 79, 124, 130, 193, 197, 198, 199 (30%), 214, 221): 199^t (30%)

**Q.** How did the “inhibition of hLigI (DNA ligase I), in words” value (hLigI; in vitro screen, 100 μmol/L, the 15 hLigI inhibitors inhibited by >50%) turn out when O=C1N/C(=N\c2ccccc2)S/C1=C/c1ccc(-c2cccc(C(=O)O)c2)o1 [Compound 202] was run?
**A.** inhibited hLigI

**Q.** And the “Growth_Inh % (50 μM) MCF10A” value (MCF10A cells [3])?
**A.** 50%

**Q.** O=c1[nH]cc(/C=N/Nc2ncnc3[nH]cnc23)c(=O)[nH]1 [Compound 208] was tested. Which inhibition at 100 µM (hLigI; 100 μM) did it give?
**A.** 21%

**Q.** What about the inhibition at 100 µM (human DNA ligase III) of the same molecule?
**A.** 24%

**Q.** And the inhibition at 100 µM (human DNA ligase IV)?
**A.** < 20%

**Q.** And the IC50 (MCF10A cells [2]; cell growth, compound alone, read-out: IC50 (μM) MCF10A)?
**A.** 40 µM

**Q.** And the IC50 (MCF10A cells [2]; [4])?
**A.** 40 µM
